{"source": "patent US5679695A", "about": "“Aryl and heteroaryl compounds having anti-retrovirus activity” (The University of Connecticut, priority 1995, dated 1997)", "key": {"[1]": {"system": "HIV", "test": "Anti-HIV activity in MT-2", "type": "cell-based", "source_text": "(§1) Obviously, there is a structure activity relationship with respect to the efficacy of the compounds of the present invention. Factors that affect the relationship may include steric effects, electronic effects, (electron withdrawing or electron donating ability), resonance effects, hydrophobic,hydrophilic, hydrogen bonding parameters, etc. […] Based on the data, it has been determined that there is a direct correlation between the log (EC50)^-1 and the electronic effect of a substituent (a) or more precisely the sum of the sigma (σ) values. (The greater the electron withdrawing ability of a substituent, the higher the value of σ, while a better electron donating group has a lower value of σ.) There appears to be a direct correlation between log (EC50)^-1 and the Σσ; as the Σσ increases, so does the log (EC50)^-1. The addition of substituents to the diphenyl sulfone will affect the factors discussed hereinabove, thus both the log (EC50)^-1 and the Σσ will be affected. Thus for the diphenyl sulfone derivative [drawing 25] the relation is […]"}, "[2]": {"system": "HIV-1", "test": "XTT assay of protection from HIV-1 cytopathic effect, infected, CEM-IW", "type": "cell-based, Human Immunodeficiency Virus", "description": "(§2) Another assay for testing the efficacy of the compounds is the procedure* used in the National Cancer Institute's test for agents active against Human Immunodeficiency Virus (HIV). It is designed to detect agents acting at any stage of the virus reproductive cycle. The assay basically involves the killing of T4 lymphocytes by HIV. Small amounts of HIV are added to cells, and a complete cycle of virus reproduction is necessary to obtain the required cell killing. Agents that interact with virions, cells, or virus gene-products to interfere with viral activities will protect cells from cytolysis. The system is automated in several features to accommodate large numbers of candidate agents and is generally designed to detect anti-HIV activity. However, compounds that degenerate, or are rapidly metabolized in the culture conditions may not show activity in this screen. All tests are compared with at least one positive (e.g., AZT-treated) control done at the same time under identical conditions.\n(§3) * Weislow. O. W., Kiser, R., Fine, D., Bader, J., Shoemaker, R. H., Boyd, M. R.: New soluble-formazan assay for HIV-1 cytopathic effects: application to high-flux screening of synthetic and natural products for AIDS-antiviral activity. J. Natl. Cancer Inst. 81:577-586, 1989.\n(§4) 1. The Candidate agent is dissolved in dimethyl sulfoxide (unless otherwise instructed) then diluted 1:100 in cell culture medium before preparing serial half-log10 dilutions. T4 lymphocytes (CEM cell line) are added and after a brief interval HIV-1 added, resulting in a 1:200 final dilution of the compound. Uninfected cells with the compound serve as a toxicity control, and infected and uninfected cells without compound serve as basic controls.\n(§5) 2. Cultures are incubated at 37° in a 5% carbon dioxide atmosphere for 6 days.\n(§6) 3. The tetrazolium salt, XTT, is added to all wells, and cultures are incubated to allow formazan color development by viable cells.\n(§7) 4. Individual wells are analyzed spectrophotometrically to quantitate formazan production, and in addition are viewed microscopically for detection of viable cells and confirmation of protective activity.\n(§8) 5. Drug-treated virus-infected cells are compared with drug-treated noninfected cells and with other appropriate controls (untreated infected and untreated noninfected: cells, drug-containing wells without cells, etc.) on the same plate.\n(§9) 6. Data are reviewed in comparison with other tests done at the same time and a determination about activity is made."}, "[3]": {"system": "HIV", "test": "Anti-HIV assays (summary statements, structure-activity trends)", "type": "cell-based", "source_text": "as §1"}, "[4]": {"system": "CEM-IW", "test": "XTT toxicity control, uninfected, CEM-IW", "type": "cell-based", "description": "as §2, §3, §4, §5, §6, §7, §8, §9"}, "[5]": {"test": "XTT toxicity control, uninfected, CEM-IW", "type": "cell-based", "conditions": "human, cem-iw cells, read-out: Uninfected response", "description": "as §2, §3, §4, §5, §6, §7, §8, §9"}, "[6]": {"conditions": "Human immunodeficiency virus 1, read-out: MT-2 EC50, M"}, "[7]": {"conditions": "Human immunodeficiency virus 1, CEM-IW, summary table, read-out: CEM-IW EC50"}, "[8]": {"conditions": "Human immunodeficiency virus 1, MT-2, summary table, read-out: MT-2 EC50"}}, "note": "Values joined by “and” are separate entries in the source; they are usually repeats but may differ in a detail not shown here. Equal values may be shown once. Read-outs that look alike come from different tables or passages of the source."}
{"smiles": "[O-][S+](c1ccccc1)c1ccccc1", "note": "[H H H H SO]", "values": [{"measurement": "EC50", "setting": "[1]; [6]", "result": 358, "unit": "µM"}]}
{"smiles": "O=S(=O)(c1ccccc1)c1ccccn1", "note": "[Compound 7, phenyl 2-pyridyl sulfone]", "values": [{"measurement": "EC50", "setting": "[2]; [7]", "result": 206, "unit": "µM"}, {"measurement": "anti-HIV activity (in words)", "setting": "[3]", "result": "shows anti-HIV activity"}, {"measurement": "EC50", "setting": "[1]; [8]", "result": 75.7, "unit": "µM"}]}
{"smiles": "O=[N+]([O-])c1ccccc1Sc1ccccc1[N+](=O)[O-]", "note": "[Compound 5]", "values": [{"measurement": "EC50", "setting": "[2]; [7]", "result": 7.87, "unit": "µM"}, {"measurement": "EC50", "setting": "[1]; [6]", "result": 5.77, "unit": "µM"}]}
{"smiles": "O=S(=O)(c1ccccc1)c1ccccc1", "note": "[Compound 3, diphenyl sulfone]", "values": [{"measurement": "EC50", "setting": "[1]; [6]", "result": 77.5, "unit": "µM"}]}
{"smiles": "O=[N+]([O-])c1ccccc1S(=O)(=O)c1ccc(Cl)cc1", "note": "[Compound 4, 1-(4-chlorophenylsulfonyl)-2-nitrobenzene]", "values": [{"measurement": "EC50", "setting": "[2]; [7]", "result": 42.9, "unit": "µM"}, {"measurement": "EC50", "setting": "[1]; [8]", "result": 38.2, "unit": "µM"}]}
{"smiles": "O=[N+]([O-])c1ccccc1S(=O)(=O)c1ccccc1[N+](=O)[O-]", "note": "[Compound 6, 2,2'-dinitrodiphenyl sulfone]", "values": [{"measurement": "Conclusion", "setting": "[2]; CEM-IW", "result": "ACTIVE"}, {"measurement": "TI50 (IC/EC)", "setting": "[2]; CEM-IW", "result": "> 2.05 × 10^+2 and > 1.75 × 10^+2 and > 1.27 × 10^+2 and > 1.62 × 10^+2"}, {"measurement": "Infected response", "setting": "[2]; CEM-IW, 1.45 × 10^-4 Molar, 145 µM", "result": "94.22% of Control and 83.35% of Control and 80.76% of Control"}, {"measurement": "Infected response", "setting": "[2]; CEM-IW, 1.45 × 10^-5 Molar, 14.5 µM", "result": "100.31% of Control and 95.03% of Control and 82.49% of Control and 79.91% of Control"}, {"measurement": "Infected response", "setting": "[2]; CEM-IW, 1.45 × 10^-6 Molar, 1.45 µM", "result": "86.23% of Control and 82.50% of Control and 62.75% of Control and 68.40% of Control"}, {"measurement": "Infected response", "setting": "[2]; CEM-IW, 4.58 × 10^-5 Molar, 45.8 µM", "result": "95.59% of Control and 83.75% of Control and 82.81% of Control"}, {"measurement": "Infected response", "setting": "[2]; CEM-IW, 4.59 × 10^-6 Molar, 4.59 µM", "result": "92.81% of Control and 84.87% of Control and 80.73% of Control"}, {"measurement": "Infected response", "setting": "[2]; CEM-IW, 4.60 × 10^-7 Molar, 0.46 µM", "result": "29.70% of Control and 24.44% of Control and 37.65% of Control"}, {"measurement": "EC50", "setting": "[2]; CEM-IW, infected, read-out: EC50", "result": "0.829 µM and 1.14 µM and 0.892 µM"}, {"measurement": "viability at 145 µM", "setting": "[2]; Human immunodeficiency virus 1, CEM-IW, 1.45 × 10^-4 Molar, read-out: Infected response", "result": 97.4, "unit": "%"}, {"measurement": "viability at 45.8 µM", "setting": "[2]; Human immunodeficiency virus 1, CEM-IW, 4.58 × 10^-5 Molar, read-out: Infected response", "result": 99, "unit": "%"}, {"measurement": "viability at 4.59 µM", "setting": "[2]; Human immunodeficiency virus 1, CEM-IW, 4.59 × 10^-6 Molar, read-out: Infected response", "result": 94, "unit": "%"}, {"measurement": "viability at 0.46 µM", "setting": "[2]; Human immunodeficiency virus 1, CEM-IW, 4.60 × 10^-7 Molar, read-out: Infected response", "result": 42, "unit": "%"}, {"measurement": "EC50", "setting": "[2]; Human immunodeficiency virus 1, CEM-IW, infected, read-out: EC50", "result": 0.706, "unit": "µM"}, {"measurement": "EC50", "setting": "[2]; Human immunodeficiency virus 1, read-out: CEM-IW EC50, M, CEM-IW, summary table", "result": 5.44, "unit": "µM"}, {"measurement": "Uninfected response", "setting": "[4]; 1.45 × 10^-4 Molar, 145 µM", "result": "109.82% of Control and 97.75% of Control and 89.72% of Control and 104.62% of Control"}, {"measurement": "Uninfected response", "setting": "[4]; 1.45 × 10^-5 Molar, 14.5 µM", "result": "97.21% of Control and 84.55% of Control and 104.22% of Control"}, {"measurement": "Uninfected response", "setting": "[4]; 1.45 × 10^-6 Molar, 1.45 µM", "result": "93.92% of Control and 100.12% of Control and 105.53% of Control"}, {"measurement": "Uninfected response", "setting": "[4]; 1.45 × 10^-7 Molar, 0.145 µM", "result": "80.72% of Control and 98.46% of Control and 109.08% of Control and 105.53% of Control"}, {"measurement": "Uninfected response", "setting": "[4]; 4.58 × 10^-5 Molar, 45.8 µM", "result": "100.68% of Control and 106.72% of Control and 80.53% of Control and 105.99% of Control"}, {"measurement": "Uninfected response", "setting": "[4]; 4.59 × 10^-6 Molar, 4.59 µM", "result": "96.62% of Control and 82.26% of Control and 98.81% of Control"}, {"measurement": "Uninfected response", "setting": "[4]; 4.60 × 10^-7 Molar, 0.46 µM", "result": "74.84% of Control and 97.86% of Control and 88.80% of Control and 107.87% of Control"}, {"measurement": "Uninfected response", "setting": "[4]; 4.60 × 10^-8 Molar, 0.046 µM", "result": "88.77% of Control and 104.88% of Control and 105.92% of Control and 111.46% of Control"}, {"measurement": "IC50", "setting": "[4]; uninfected (toxicity)", "result": "> 145", "unit": "µM"}, {"measurement": "viability at 14.5 µM", "setting": "[5]; 1.45 × 10^-5 Molar", "result": 92.5, "unit": "%"}, {"measurement": "viability at 1.45 µM", "setting": "[5]; 1.45 × 10^-6 Molar", "result": 87.1, "unit": "%"}, {"measurement": "viability at 4.59 µM", "setting": "[5]; 4.59 × 10^-6 Molar", "result": 90, "unit": "%"}, {"measurement": "anti-HIV activity (in words)", "setting": "[3]", "result": "increased potency"}, {"measurement": "EC50", "setting": "[1]; [6]", "result": 0.747, "unit": "µM"}]}
